Data as given in the supplement of paper PMC10883282.
± gives the standard deviation of the averaged measurements.

Experiments:
Test in all cases: relative viability vs DMSO control (72 h) (fraction); higher = more viable cells
RD-ES = system: RD-ES
Method in brief: (§1)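 After seeding at densities set for 80–90% confluence in 384-well plates, sarcoma cell lines waited 24 h before 2.5 µl of serially diluted compound was added. Source plates held 10 mM down to 0.0002 mM. Plates were incubated 72 h at 37 °C with 5% CO2, with 0.1% DMSO vehicle and a 5 µM positive control, and relative viability was taken from ATPLite as percent growth averaged over up to triplicate wells, with 1 set as full and 0 as none.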

SYO-1 = system: SYO-1
Method in brief: as §1

SK-ES-1 = system: SK-ES-1
Method in brief: as §1

G401 = system: G401
Method in brief: as §1

VA-ES-BJ = system: VA-ES-BJ
Method in brief: as §1

KHOS-240S = system: KHOS-240S
Method in brief: as §1

HT1080 = system: HT1080
Method in brief: as §1

RD = system: RD
Method in brief: as §1

SW982 = system: SW982
Method in brief: as §1

SW1353 = system: SW1353
Method in brief: as §1

SK-LMS-1 = system: SK-LMS-1
Method in brief: as §1

MES-SA = system: MES-SA
Method in brief: as §1

CC#CC(=O)N1CCC[C@H]1c1nc(-c2ccc(C(=O)Nc3ccccn3)cc2)c2c(N)nccn12 [Acalabrutinib]
Conditions	relative viability
G401, 0.00017 µM	0.98 ± 0.046
G401, 0.00051 µM	0.991 ± 0.016
G401, 0.00152 µM	0.997 ± 0.028
G401, 0.00457 µM	1.02 ± 0.015
G401, 0.01372 µM	1.01 ± 0.039
G401, 0.04115 µM	1.01 ± 0.064
G401, 0.1235 µM	0.985 ± 0.019
G401, 0.3704 µM	0.996 ± 0.053
G401, 1.111 µM	1.02 ± 0.024
G401, 3.333 µM	0.997 ± 0.036
G401, 10 µM	0.917 ± 0.016
HT1080, 0.00017 µM	1.03 ± 0.03
HT1080, 0.00051 µM	1.05 ± 0.018
HT1080, 0.00152 µM	1.05 ± 0.037
HT1080, 0.00457 µM	1.036 ± 0.0092
HT1080, 0.01372 µM	1.01 ± 0.015
HT1080, 0.04115 µM	1.029 ± 0.0061
HT1080, 0.1235 µM	1.04 ± 0.0099
HT1080, 0.3704 µM	1.07 ± 0.024
HT1080, 1.111 µM	1.03 ± 0.016
HT1080, 3.333 µM	1.08 ± 0.039
HT1080, 10 µM	1.04 ± 0.05
KHOS-240S, 0.00017 µM	1.06 ± 0.052
KHOS-240S, 0.00051 µM	1.06 ± 0.05
KHOS-240S, 0.00152 µM	1.07 ± 0.068
KHOS-240S, 0.00457 µM	1.09 ± 0.076
KHOS-240S, 0.01372 µM	1.06 ± 0.073
KHOS-240S, 0.04115 µM	1.06 ± 0.043
KHOS-240S, 0.1235 µM	1.03 ± 0.017
KHOS-240S, 0.3704 µM	1.04 ± 0.034
KHOS-240S, 1.111 µM	1.041 ± 0.01
KHOS-240S, 3.333 µM	1.04 ± 0.022
KHOS-240S, 10 µM	1.05 ± 0.023
MES-SA, 0.00017 µM	0.914 ± 0.047
MES-SA, 0.00051 µM	0.905 ± 0.032
MES-SA, 0.00152 µM	0.937 ± 0.032
MES-SA, 0.00457 µM	0.914 ± 0.028
MES-SA, 0.01372 µM	0.908 ± 0.033
MES-SA, 0.04115 µM	0.909 ± 0.021
MES-SA, 0.1235 µM	0.912 ± 0.019
MES-SA, 0.3704 µM	0.926 ± 0.037
MES-SA, 1.111 µM	0.909 ± 0.051
MES-SA, 3.333 µM	0.914 ± 0.02
MES-SA, 10 µM	0.907 ± 0.032
RD, 0.00017 µM	1.13 ± 0.08
RD, 0.00051 µM	1.13 ± 0.071
RD, 0.00152 µM	1.12 ± 0.085
RD, 0.00457 µM	1.15 ± 0.053
RD, 0.01372 µM	1.13 ± 0.032
RD, 0.04115 µM	1.09 ± 0.064
RD, 0.1235 µM	1.06 ± 0.049
RD, 0.3704 µM	1.06 ± 0.031
RD, 1.111 µM	1.09 ± 0.019
RD, 3.333 µM	1.13 ± 0.017
RD, 10 µM	1.07 ± 0.065
RD-ES, 0.00017 µM	0.9637 ± 0.0096
RD-ES, 0.00051 µM	0.979 ± 0.011
RD-ES, 0.00152 µM	0.998 ± 0.03
RD-ES, 0.00457 µM	0.982 ± 0.033
RD-ES, 0.01372 µM	1 ± 0.013
RD-ES, 0.04115 µM	0.99 ± 0.029
RD-ES, 0.1235 µM	0.992 ± 0.032
RD-ES, 0.3704 µM	1.021 ± 0.0033
RD-ES, 1.111 µM	1.02 ± 0.026
RD-ES, 3.333 µM	0.974 ± 0.012
RD-ES, 10 µM	0.9313 ± 0.007
SK-ES-1, 0.00017 µM	0.978 ± 0.013
SK-ES-1, 0.00051 µM	0.989 ± 0.053
SK-ES-1, 0.00152 µM	1.04 ± 0.011
SK-ES-1, 0.00457 µM	1.03 ± 0.026
SK-ES-1, 0.01372 µM	0.996 ± 0.06
SK-ES-1, 0.04115 µM	0.998 ± 0.017
SK-ES-1, 0.1235 µM	0.999 ± 0.036
SK-ES-1, 0.3704 µM	1.02 ± 0.017
SK-ES-1, 1.111 µM	1.012 ± 0.0078
SK-ES-1, 3.333 µM	1.02 ± 0.035
SK-ES-1, 10 µM	0.983 ± 0.022
SK-LMS-1, 0.00017 µM	1 ± 0.057
SK-LMS-1, 0.00051 µM	1.01 ± 0.032
SK-LMS-1, 0.00152 µM	1.03 ± 0.06
SK-LMS-1, 0.00457 µM	1.04 ± 0.024
SK-LMS-1, 0.01372 µM	1.04 ± 0.02
SK-LMS-1, 0.04115 µM	1 ± 0.054
SK-LMS-1, 0.1235 µM	1.03 ± 0.058
SK-LMS-1, 0.3704 µM	1.04 ± 0.049
SK-LMS-1, 1.111 µM	1.06 ± 0.014
SK-LMS-1, 3.333 µM	1.03 ± 0.047
SK-LMS-1, 10 µM	0.944 ± 0.03
SW982, 0.00017 µM	1.048 ± 0.0051
SW982, 0.00051 µM	1.037 ± 0.0048
SW982, 0.00152 µM	1.05 ± 0.029
SW982, 0.00457 µM	1.05 ± 0.042
SW982, 0.01372 µM	1.05 ± 0.02
SW982, 0.04115 µM	1.034 ± 0.0066
SW982, 0.1235 µM	1.02 ± 0.015
SW982, 0.3704 µM	1.02 ± 0.015
SW982, 1.111 µM	1.02 ± 0.016
SW982, 3.333 µM	1.01 ± 0.053
SW982, 10 µM	0.955 ± 0.054
SW1353, 0.00017 µM	0.974 ± 0.043
SW1353, 0.00051 µM	0.933 ± 0.03
SW1353, 0.00152 µM	0.942 ± 0.018
SW1353, 0.00457 µM	0.946 ± 0.02
SW1353, 0.01372 µM	0.947 ± 0.021
SW1353, 0.04115 µM	0.944 ± 0.032
SW1353, 0.1235 µM	0.957 ± 0.013
SW1353, 0.3704 µM	0.936 ± 0.039
SW1353, 1.111 µM	0.962 ± 0.03
SW1353, 3.333 µM	0.8927 ± 0.0083
SW1353, 10 µM	0.827 ± 0.013
SYO-1, 0.00017 µM	0.958 ± 0.057
SYO-1, 0.00051 µM	0.946 ± 0.04
SYO-1, 0.00152 µM	0.941 ± 0.031
SYO-1, 0.00457 µM	0.937 ± 0.042
SYO-1, 0.01372 µM	0.945 ± 0.029
SYO-1, 0.04115 µM	0.932 ± 0.022
SYO-1, 0.1235 µM	0.94 ± 0.029
SYO-1, 0.3704 µM	0.934 ± 0.043
SYO-1, 1.111 µM	0.928 ± 0.035
SYO-1, 3.333 µM	0.948 ± 0.039
SYO-1, 10 µM	0.898 ± 0.055
VA-ES-BJ, 0.00017 µM	1.01 ± 0.035
VA-ES-BJ, 0.00051 µM	1.01 ± 0.035
VA-ES-BJ, 0.00152 µM	1.03 ± 0.016
VA-ES-BJ, 0.00457 µM	1.04 ± 0.064
VA-ES-BJ, 0.01372 µM	1.01 ± 0.049
VA-ES-BJ, 0.04115 µM	1.01 ± 0.032
VA-ES-BJ, 0.1235 µM	1 ± 0.033
VA-ES-BJ, 0.3704 µM	1.05 ± 0.023
VA-ES-BJ, 1.111 µM	1.08 ± 0.016
VA-ES-BJ, 3.333 µM	1.07 ± 0.03
VA-ES-BJ, 10 µM	1.05 ± 0.048
